PMC4302236, “Functional profile of a novel modulator of serotonin, dopamine, and glutamate neurotransmission” (Psychopharmacology, 2014)
Where two headings read alike, the source gives them in different places.

Columns and labels:
5-HT2A receptor [1] = target: T1, 5-HT2A receptor (Homo sapiens, UniProt P28223); experiment: Serotonin-mediated phosphatidylinositol (PI) turnover in HEK293 cells; type: cell-based; conditions: right-shifting the serotonin dose–response curve
[2] = target: T2, human recombinant D2-short receptor (Homo sapiens, UniProt P14416); experiment: Blockade of dopamine-induced inhibition of forskolin-stimulated cAMP accumulation in CHO cells; type: cell-based; conditions: forskolin 10 μM, read-out: IC50, blocking dopamine inhibition of forskolin-stimulated cAMP accumulation
T2 construct: expressed in transfected cells; host or cells: CHO

[3] = tested on: panel of 66 receptors, ion channels, and enzymes; experiment: NovaScreen broad selectivity panel at 100 nM, whole panel; type: binding
5-HT2B receptors = 5-HT2B receptors (Homo sapiens, UniProt P41595); experiment: Binding to 5-HT2B receptors
DOI-induced headtwitch = experiment: Inhibition of DOI-induced headtwitch (in vivo 5-HT2A antagonism); conditions: mice, p.o., 30 min prior to DOI […] i.p.
Description: Inhibition of DOI-induced headtwitch was measured as a functional assay for the in vivo potency of the compound as an antagonist at 5-HT2A receptors. […] Headtwitches were then counted for 5 min, starting 10 min after DOI injection. An ID50 for inhibition of DOI-induced headtwitch was calculated using a four-parameter logistical fit (Excel Fit software, IDBS).

[4] = tested on: serine 40 (S40)-phosphorylated tyrosine hydroxylase; experiment: Striatal tyrosine hydroxylase S40 phosphorylation state (CNSProfile immunoblotting); type: in vivo; conditions: mice, acute; ITI-007 3 mg/kg p.o., clozapine 5 i.p., aripiprazole 10 p.o., olanzapine 1 i.p., risperidone 3 p.o., haloperidol 1 i.p.; over 60 min; vs vehicle
Description: The effect of the selected compounds on the phosphorylation state of tyrosine hydroxylase (TH) was measured and quantitated as an indicator of the potential of each compound to perturb presynaptic dopamine synthesis in striatum. […] This technique preserves in vivo levels of brain protein phosphorylation ([Zhu et al. 2010]). […] Small aliquots of the homogenate were retained for protein determination by the bicinchoninic acid (BCA) protein assay method (Pierce Chemical Co., Rockford, IL). […] Immunoblotting was carried out using a phos-phorylation state-specific polyclonal antibody raised against […] (S40)-phosphorylated tyrosine hydroxylase (Chemicon, Temecula, CA) and a pan-TH monoclonal antibody for measuring the total protein levels (BD Biosciences, San Jose, CA). […] Antibody binding was detected and quantitated using a LiCor Odyssey infrared fluorescent detection system. Phosphorylation at each site detected by phospho-specific antibodies was quantified, normalized to total levels of the protein (non-phosphorylated), and expressed as percent±SEM of the level of phosphorylation in vehicle-treated control mice (N=6).

[5] = tested on: striatal dopamine metabolism; experiment: Striatal dopamine metabolism (HPLC-EC of DA, DOPAC, HVA); type: in vivo, mice; conditions: for DOPAC/DA, chronic (21 day) dosing, mean / HVA/DA, chronic (21 day) dosing, mean: striatum 2 h after last dose; for DOPAC/DA, acute (2 h) dosing, mean / HVA/DA, acute (2 h) dosing, mean: striatum 2 h after dose
Description: Measurements of tissue dopamine levels were performed at CDC-NIOSH. […] Striatum was rapidly dissected from each mouse brain, weighed, and placed into Eppendorf tubes that were frozen in liquid nitrogen and stored at -80 °C. […] Tissues were homogenized in 100 μl of ice-cold 0.2 M perchloric acid containing 1 μM dihydroxybenzylamine (DHBA) as an internal standard and centrifuged at 10,000×g for 10 min at 4 °C. The supernatant was filtered through a 0.2 μm nitrocellulose membrane, and an aliquot (10 μl) was injected from a temperature-controlled (4 °C) automatic sample injector (Waters 717plus Autosampler) connected to a Waters 515 HPLC pump. Catecholamines were separated on a C18 reverse-phase column ([…]; Waters […] 25 cm×4.6 mm; 5 μm), electrochemically detected (Waters 464 Pulsed Electrochemical Detector; range 10 nA, potential +0.7 V), and analyzed using Millennium software. […] A flow rate of 1 ml/min was used. […] The recovery of each analyte was adjusted with respect to the internal standard and quantified from a standard curve. The levels of dopamine and its metabolites, DOPAC and HVA, were calculated from the AUC values for each (based on microgram per gram (μg/g) tissue wet weight) and expressed as a percent of the saline control.

[6] = tested on: GluN2B phosphorylated at tyrosine (Y) 1472; experiment: GluN2B Y1472 phosphorylation state in nucleus accumbens; type: in vivo; conditions: mice, 3 mg/kg p.o., 120 min after dosing
Description: Brains were rapidly removed from the skull. […] Brain tissue was prepared for SDS-PAGE as described above, and protein homogenates (15 μg) were separated on 3-7 % gradient gels, and proteins transferred to nitrocellulose membranes. Portions of each membrane were immunoblotted for GluN2B phosphorylated at […] (rabbit polyclonal) and total GluN2B (mouse monoclonal) (Thermo Fisher Scientific, Rockford, IL).

social defeat model = experiment: Social interaction behavior after repeated social defeat; type: in vivo; conditions: mice, 1 mg/kg i.p. once daily 28 days after 10 days defeat; 150 s test
Description: Mice were tested for social isolation behavior after repeated exposure (for 10 days) to an aggressive resident mouse in the social defeat paradigm as described by [Berton et al. (2006)]. […] On the day after the last drug or vehicle treatment, the mice were placed in an open field in the presence of a resident mouse (within a smaller cage) and the animal’s behavior recorded by videotape for 150 s. Videotracking software (Noldus, Netherlands) was used to calculate the total time each mouse spent in specified open-field quadrants, defined schematically in Fig. 8. The total time (s) spent by mice representing each drug treatment group in the interaction zone (Fig. 8) in proximity to the resident mouse or, in the corner zones, at a distance from the resident mouse (Fig. 8) was expressed as a mean (±SEM).

5-HT2A receptor [7] = target: T1, 5-HT2A receptor; conditions: read-out: IC50, antagonism of serotonin-induced increase in calcium fluorescence; serotonin 30 nM
forelimb catalepsy = conditions: mouse, in vivo
Description: Forelimb catalepsy was measured using the bar grip test. Mice were placed in a Lucite mouse cage outfitted with a 3-mm diameter wooden rod suspended 4 cm from the floor of the cage. During testing, the mouse was allowed to grip the bar firmly with hind legs placed firmly on the floor of the cage. The mouse was required to maintain this posture for at least 10 s for a valid test session. Catalepsy was then quantitated by recording the latency (in seconds) to step both front paws down to the floor of the cage up to a maximum time of 120 s. If the mouse stepped off the bar immediately (less than 10 s), another attempt was made up to a maximum of ten attempts. The longest duration of immobility was recorded if none of the ten attempts were beyond 10 s. Catalepsy was measured for each mouse at 2, 3, 4, and 6 h after drug administration. Mean forelimb catalepsy time (in seconds) was calculated across each group and time point. Data were analyzed using ANOVA with Newman–Keuls post hoc test.

[8] = tested on: phospho-serine (S) 9 GSK-3β; conditions: mouse, in vivo; for Phospho-S9 GSK-3β, PFC / Phospho-S9 GSK-3β, accumbens / Phospho-S9 GSK-3β, striatum: po
Description: Each brain was rapidly removed from the skull. Nucleus accumbens, striatum, and prefrontal cortex were dissected free-hand, frozen in liquid nitrogen, and stored at −80 °C until analyzed for phosphoprotein levels. […] Levels of phospho-GSK-3β were normalized for total levels of GSK-3β and expressed as a percent of phosphoprotein levels in the vehicle-injected controls.

[9] = 1 mg/kg p.o. once daily 21 days
[10] = 3 mg/kg p.o. once daily 21 days
[11] = 10 mg/kg p.o. once daily 21 days

T1 sequence (P28223 whole entry): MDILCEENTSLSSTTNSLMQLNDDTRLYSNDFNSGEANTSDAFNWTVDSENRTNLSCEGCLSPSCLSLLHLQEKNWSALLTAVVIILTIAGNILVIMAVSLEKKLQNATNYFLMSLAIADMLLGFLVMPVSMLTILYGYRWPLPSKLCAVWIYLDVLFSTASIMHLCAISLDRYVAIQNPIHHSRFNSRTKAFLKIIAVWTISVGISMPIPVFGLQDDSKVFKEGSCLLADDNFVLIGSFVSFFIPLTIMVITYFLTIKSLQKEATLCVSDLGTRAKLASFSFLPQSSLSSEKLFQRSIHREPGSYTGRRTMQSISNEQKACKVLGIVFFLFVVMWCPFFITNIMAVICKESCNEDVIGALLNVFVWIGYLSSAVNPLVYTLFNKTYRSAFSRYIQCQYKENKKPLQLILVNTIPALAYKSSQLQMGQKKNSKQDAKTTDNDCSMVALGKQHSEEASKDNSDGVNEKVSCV
Sequence of 5-HT2B receptors (P41595 whole entry): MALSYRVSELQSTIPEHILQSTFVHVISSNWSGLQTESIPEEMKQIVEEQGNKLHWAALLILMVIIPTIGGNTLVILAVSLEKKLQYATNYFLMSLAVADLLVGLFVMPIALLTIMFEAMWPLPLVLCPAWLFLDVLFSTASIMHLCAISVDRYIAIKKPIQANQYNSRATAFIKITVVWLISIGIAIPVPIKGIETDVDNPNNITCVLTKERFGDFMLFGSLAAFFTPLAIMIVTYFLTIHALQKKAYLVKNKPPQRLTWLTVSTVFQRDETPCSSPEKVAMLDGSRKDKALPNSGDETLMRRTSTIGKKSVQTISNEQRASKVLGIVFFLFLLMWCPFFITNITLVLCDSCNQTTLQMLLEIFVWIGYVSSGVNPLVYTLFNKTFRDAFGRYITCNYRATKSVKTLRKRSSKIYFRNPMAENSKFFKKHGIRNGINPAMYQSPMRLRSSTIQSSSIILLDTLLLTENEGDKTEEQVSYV
T2 sequence (P14416 1-414 isoform P14416-2): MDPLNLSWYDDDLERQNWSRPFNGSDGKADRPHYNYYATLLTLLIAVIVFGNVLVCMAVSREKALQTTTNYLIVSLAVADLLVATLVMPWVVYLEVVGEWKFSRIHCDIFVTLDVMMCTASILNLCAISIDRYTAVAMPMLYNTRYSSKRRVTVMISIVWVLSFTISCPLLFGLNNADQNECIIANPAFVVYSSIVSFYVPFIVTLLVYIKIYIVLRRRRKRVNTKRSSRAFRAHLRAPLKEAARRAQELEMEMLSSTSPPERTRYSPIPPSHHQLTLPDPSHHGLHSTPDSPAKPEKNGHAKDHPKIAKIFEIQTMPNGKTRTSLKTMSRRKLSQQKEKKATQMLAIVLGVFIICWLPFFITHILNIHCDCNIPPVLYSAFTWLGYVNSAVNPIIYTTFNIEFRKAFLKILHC

CN1CCN2c3c(cccc31)[C@@H]1CN(CCCC(=O)c3ccc(F)cc3)CC[C@@H]12 [ITI-007, 1-(4-fluoro-phenyl)-4-((6bR,10aS)-3-methyl-2,3,6b,9,10,10a-hexahydro-1H,7H-pyrido[3′,4′:4,5]pyrrolo[1,2,3-de]quinoxalin-8-yl)-butan-1-one]
Effect on serotonin-mediated increases in phosphatidylinositol (PI) turnover (5-HT2A receptor [1]): antagonize | IC50 [2]: 338 nM | Binding to the other targets of the panel ([3]; 100 nM, custom panel of 66 receptors, ion channels, and enzymes): did not bind significantly | Ki ([3]; read-out: projected Ki values (>50 % binding inhibition), single concentration 100 nM, at the 5-HT2A, D1, D2, D4, alpha1A and alpha1B receptors, and at SERT): ≤ 100 nM | Binding to 5-HT2B receptors (5-HT2B receptors): did not significantly bind | ID50, inhibition of DOI-induced headtwitch (DOI-induced headtwitch): 0.09 mg/kg | Effect on TH phosphorylation at S40 in striatum [4]: no significant effect | DOPAC/DA, chronic (21 day) dosing, mean [5, 9]: 4.69 | HVA/DA, chronic (21 day) dosing, mean [5, 9]: 9.44 | DOPAC/DA, acute (2 h) dosing, mean ([5]; 1 mg/kg p.o. once): 4.98 | HVA/DA, acute (2 h) dosing, mean ([5]; 1 mg/kg p.o. once): 8.06 | DOPAC/DA, chronic (21 day) dosing, mean [5, 10]: 4.54 | HVA/DA, chronic (21 day) dosing, mean [5, 10]: 7.99 | DOPAC/DA, acute (2 h) dosing, mean ([5]; 3 mg/kg p.o. once): 4.57 | HVA/DA, acute (2 h) dosing, mean ([5]; 3 mg/kg p.o. once): 7.47 | DOPAC/DA, chronic (21 day) dosing, mean [5, 11]: 5.80 | HVA/DA, chronic (21 day) dosing, mean [5, 11]: 10.47 | DOPAC/DA, acute (2 h) dosing, mean ([5]; 10 mg/kg p.o. once): 6.02 | HVA/DA, acute (2 h) dosing, mean ([5]; 10 mg/kg p.o. once): 8.40 | GluN2B phosphorylation at Y1472 in nucleus accumbens [6]: 180±20 % of control | Time spent in interaction zone (social behavior) after chronic social defeat (social defeat model): no such reduction in social behavior | IC50 (5-HT2A receptor [7]): 7 nM | Cataleptogenic activity (forelimb catalepsy): no demonstrable cataleptogenic activity | Forelimb catalepsy, bar grip test (forelimb catalepsy; po, 30 mg/kg): statistically significant increase in forelimb catalepsy | Effect on S9 GSK-3β phosphorylation in striatum at any dose tested [8]: no significant effect | Phospho-S9 GSK-3β, PFC ([8]; 3 mg/kg): 103.4±3.1 % vehicle control | Phospho-S9 GSK-3β, accumbens ([8]; 3 mg/kg): 122.9±8.6 % vehicle control | Phospho-S9 GSK-3β, striatum ([8]; 3 mg/kg): 106.6±2.1 % vehicle control | Phospho-S9 GSK-3β, striatum ([8]; 10 mg/kg): 98.2±5.1 % vehicle control | Phospho-S9 GSK-3β, PFC ([8]; 30 mg/kg): 112.1±2.7 % vehicle control | Phospho-S9 GSK-3β, accumbens ([8]; 30 mg/kg): 105.5±2.2 % vehicle control | Phospho-S9 GSK-3β, striatum ([8]; 30 mg/kg): 108.0±2.9 % vehicle control
